Test results published in paper PMC9737644, “Facile Synthesis of Some Coumarin Derivatives and Their Cytotoxicity through VEGFR2 and Topoisomerase II Inhibition” (Molecules, 2022).
Structures can show the parent of a compound that is named as a salt. Where two headings read alike, the source gives them in different places.

Tests used:
VEGFR2 (KDR) = VEGFR2 (KDR) (Homo sapiens, UniProt P35968); test: biochemical
Topoisomerase II = Topoisomerase II (Homo sapiens, UniProt P11388); test: Topoisomerase II screening kit
MCF-7 cells = test: Cytotoxicity using MTT assay, MCF-7; type: cell-based; details: for IC50: Homo sapiens, MCF7, 48 h, 48 h, read-out: IC50 cytotoxicity against MCF-7; for cell death: MCF-7 cells
Protocol: (§1) Breast cancer (MCF-7) and liver cancer (HepG2) cell lines were collected from National Cancer Institute in Cairo and grown in “RPMI-1640 medium L-Glutamine. The cells were grown in 10% fetal bovine serum (FBS) and 1% penicillin-streptomycin using standard tissue culture protocol. On the second day, cells were grown in triplicate on a 96-well plate at a density of 5 × 10^4 cells and incubated with the investigated compounds at “0.01, 0.1, 1, 10, and 100 µM”. Cell viabilioty was measured with MTT solution. The absorbance was measured using an ELISA microplate reader. After comparing the treated groups to the control, the IC50 values were recorded to indicate the level of viability following previous work.

HepG2 cells = test: Cytotoxicity using MTT assay, HepG2; type: cell-based; details: read-out: IC50 cytotoxicity against HepG2
Protocol: as §1

VEGFR2 (KDR), sequence (P35968 20-1356): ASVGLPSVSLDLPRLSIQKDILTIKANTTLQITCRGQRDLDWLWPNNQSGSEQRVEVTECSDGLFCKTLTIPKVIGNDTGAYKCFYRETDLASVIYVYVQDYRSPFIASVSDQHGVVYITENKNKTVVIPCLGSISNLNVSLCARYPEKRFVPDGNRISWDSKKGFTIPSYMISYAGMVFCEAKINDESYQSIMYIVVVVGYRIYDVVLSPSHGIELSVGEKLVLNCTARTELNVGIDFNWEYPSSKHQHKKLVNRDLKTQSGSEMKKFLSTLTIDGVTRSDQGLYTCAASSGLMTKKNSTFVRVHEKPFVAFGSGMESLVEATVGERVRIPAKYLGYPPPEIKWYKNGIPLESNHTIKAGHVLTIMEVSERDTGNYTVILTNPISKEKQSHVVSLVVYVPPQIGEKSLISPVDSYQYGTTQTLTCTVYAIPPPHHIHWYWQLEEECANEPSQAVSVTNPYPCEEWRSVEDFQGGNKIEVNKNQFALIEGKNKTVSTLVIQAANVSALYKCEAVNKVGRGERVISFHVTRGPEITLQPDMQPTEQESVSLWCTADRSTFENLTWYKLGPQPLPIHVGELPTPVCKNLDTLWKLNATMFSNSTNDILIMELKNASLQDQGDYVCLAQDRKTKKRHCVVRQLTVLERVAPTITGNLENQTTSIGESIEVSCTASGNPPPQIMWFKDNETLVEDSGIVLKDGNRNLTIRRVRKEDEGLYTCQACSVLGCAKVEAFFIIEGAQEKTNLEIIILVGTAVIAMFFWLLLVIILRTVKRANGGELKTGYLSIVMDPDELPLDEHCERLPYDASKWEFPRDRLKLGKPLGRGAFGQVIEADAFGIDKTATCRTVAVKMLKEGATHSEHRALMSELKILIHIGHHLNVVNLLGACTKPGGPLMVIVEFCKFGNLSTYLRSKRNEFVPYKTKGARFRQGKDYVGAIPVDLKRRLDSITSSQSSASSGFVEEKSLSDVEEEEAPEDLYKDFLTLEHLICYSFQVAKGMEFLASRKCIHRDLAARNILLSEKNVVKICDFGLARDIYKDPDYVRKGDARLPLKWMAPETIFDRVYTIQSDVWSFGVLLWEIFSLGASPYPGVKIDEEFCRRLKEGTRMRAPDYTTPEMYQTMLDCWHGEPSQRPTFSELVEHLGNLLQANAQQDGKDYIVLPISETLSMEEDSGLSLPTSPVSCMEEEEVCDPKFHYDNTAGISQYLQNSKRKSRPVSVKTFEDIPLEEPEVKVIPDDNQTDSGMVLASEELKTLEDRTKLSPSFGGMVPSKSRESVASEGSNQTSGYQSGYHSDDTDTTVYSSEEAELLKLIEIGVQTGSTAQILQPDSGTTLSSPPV
Topoisomerase II, sequence (P11388 whole entry): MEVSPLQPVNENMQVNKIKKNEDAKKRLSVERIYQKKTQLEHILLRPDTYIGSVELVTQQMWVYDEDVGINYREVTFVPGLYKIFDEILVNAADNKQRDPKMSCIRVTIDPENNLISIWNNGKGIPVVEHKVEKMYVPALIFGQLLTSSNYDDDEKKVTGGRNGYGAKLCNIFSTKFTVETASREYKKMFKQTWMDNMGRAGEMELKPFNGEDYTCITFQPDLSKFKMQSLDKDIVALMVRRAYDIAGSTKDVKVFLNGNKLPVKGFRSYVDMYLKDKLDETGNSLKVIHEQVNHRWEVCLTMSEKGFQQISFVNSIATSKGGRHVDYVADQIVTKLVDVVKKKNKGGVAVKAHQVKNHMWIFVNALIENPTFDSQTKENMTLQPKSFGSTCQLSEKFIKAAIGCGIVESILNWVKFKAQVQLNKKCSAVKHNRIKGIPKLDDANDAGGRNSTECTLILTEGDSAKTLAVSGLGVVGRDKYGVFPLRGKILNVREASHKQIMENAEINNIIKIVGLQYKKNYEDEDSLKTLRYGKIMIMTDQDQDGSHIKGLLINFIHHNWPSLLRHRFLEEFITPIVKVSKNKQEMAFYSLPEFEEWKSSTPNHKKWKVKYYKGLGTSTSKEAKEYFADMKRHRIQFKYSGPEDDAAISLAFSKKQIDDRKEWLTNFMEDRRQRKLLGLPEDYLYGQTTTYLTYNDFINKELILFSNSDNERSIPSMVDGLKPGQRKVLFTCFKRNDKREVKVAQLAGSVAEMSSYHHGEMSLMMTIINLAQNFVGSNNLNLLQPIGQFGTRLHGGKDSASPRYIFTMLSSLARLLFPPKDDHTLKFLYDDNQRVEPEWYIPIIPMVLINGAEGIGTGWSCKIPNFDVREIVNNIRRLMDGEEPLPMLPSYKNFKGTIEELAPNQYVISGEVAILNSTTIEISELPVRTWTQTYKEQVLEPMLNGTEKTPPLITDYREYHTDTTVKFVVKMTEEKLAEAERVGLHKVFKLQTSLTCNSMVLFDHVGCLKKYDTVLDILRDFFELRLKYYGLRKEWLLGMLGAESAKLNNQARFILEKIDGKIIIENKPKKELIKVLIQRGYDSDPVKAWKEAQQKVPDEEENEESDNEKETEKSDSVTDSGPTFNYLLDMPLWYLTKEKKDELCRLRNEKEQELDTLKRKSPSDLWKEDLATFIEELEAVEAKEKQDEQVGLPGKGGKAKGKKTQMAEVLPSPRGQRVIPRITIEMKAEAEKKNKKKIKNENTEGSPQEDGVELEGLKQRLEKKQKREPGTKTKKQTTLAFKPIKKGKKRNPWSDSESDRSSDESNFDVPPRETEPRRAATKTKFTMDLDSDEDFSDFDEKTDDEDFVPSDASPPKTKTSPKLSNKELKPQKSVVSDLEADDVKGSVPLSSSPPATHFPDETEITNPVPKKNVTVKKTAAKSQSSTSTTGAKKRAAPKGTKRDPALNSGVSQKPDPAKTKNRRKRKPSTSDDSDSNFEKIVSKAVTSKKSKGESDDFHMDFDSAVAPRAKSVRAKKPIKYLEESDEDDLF

Row | Compound | melting point | other results
1 | COC(=O)CNC(=O)c1cc2ccccc2oc1=O (as salt: hydrochloride) [4a, Methyl [(2-oxo-2H-chromene-3-carbonyl)-amino] ethanoate] | 173 to 175 °C | 
2 | COC(=O)C[C@H](NC(=O)c1cc2ccccc2oc1=O)C(=O)OC (as salt: succinate) [4g, Dimethyl 2-[(2-oxo-2H-chromene-3-carbonyl)-amino] succinate] | 69 to 71 °C | 
3 | COC(=O)[C@H](C)NC(=O)c1cc2ccccc2oc1=O [4b, Methyl 2-[(2-oxo-2H-chromene-3-carbonyl)-amino] propanoate] | 104 to 106 °C | 
4 | COC(=O)CCNC(=O)c1cc2ccccc2oc1=O [4c, Methyl 3-[(2-oxo-2H-chromene-3-carbonyl)-amino] propanoate] | 135 to 137 °C | 
5 | COC(=O)C(CO)NC(=O)c1cc2ccccc2oc1=O (stereo not shown) [4d, Methyl 3-hydroxy-2-[(2-oxo-2H-chromene-3-carbonyl)-amino]-propanoate] | 177 to 179 °C | 
6 | COC(=O)C(NC(=O)c1cc2ccccc2oc1=O)C(C)C (stereo not shown) [4e, Methyl 3-methyl-2-[(2-oxo-2H-chromene-3-carbonyl)-amino] butanoate] | 75 to 77 °C | 
7 | COC(=O)[C@H](CC(C)C)NC(=O)c1cc2ccccc2oc1=O [4f, Methyl 4-methyl-2-[(2-oxo-2H-chromene-3-carbonyl)-amino] pentan-oate] | 95 to 97 °C | 
8 | COC(=O)CC[C@H](NC(=O)c1cc2ccccc2oc1=O)C(=O)OC [4h, Dimethyl 2-[(2-oxo-2H-chromene-3-carbonyl)-amino] pentanedioate] | 64 to 66 °C | 
9 | COC(=O)[C@H](CCSC)NC(=O)c1cc2ccccc2oc1=O [4i, Methyl 4-methylsulfanyl-2-[(2-oxo-2H-chromene-3-carbonyl)-amino] butanoate] | 81 to 83 °C | 
10 | COC(=O)C(NC(=O)c1cc2ccccc2oc1=O)c1ccccc1 (stereo not shown) [4j, Methyl [(2-oxo-2H-chromene-3-carbonyl)-amino]-phenylacetate] | 189 to 192 °C | 
11 | COC(=O)C(Cc1ccc(O)cc1)NC(=O)c1cc2ccccc2oc1=O (stereo not shown) [4k, Methyl 3-(4-hydroxyphenyl)-2-[(2-oxo-2H-chromene-3-carbonyl)-amino]-propanoate] |  | IC50 (VEGFR2 (KDR)): 23.6 ± 1.19 µM; IC50 (Topoisomerase II): 4.1 ± 0.64 µM; IC50 (MCF-7 cells): 4.98 µM; cell death (MCF-7 cells): 97.82%; IC50 (HepG2 cells; 48 h): 9.44 µM; IC50 (HepG2 cells; Homo sapiens, HepG2, 48 h): 9.4 µM
12 | COC(=O)C(Cc1c[nH]c2ccccc12)NC(=O)c1cc2ccccc2oc1=O (stereo not shown) [4l, Methyl 3-(1H-Indol-3-yl)-2-[(2-oxo-2H-chromene-3-carbonyl)-amino]-propanoate] | 138 to 139 °C | 
13 | O=C(O)CCNC(=O)c1cc2ccccc2oc1=O [5c, 3-[(2-Oxo-2H-chromene-3-carbonyl)-amino]-propanoic acid] | 195 to 197 °C | 
14 | CC(C)C(NC(=O)c1cc2ccccc2oc1=O)C(=O)O (stereo not shown) [5e, 3-Methyl-2-[(2-oxo-2H-chromene-3-carbonyl)-amino] butanoic acid] | 210 to 212 °C | 
15 | CSCCC(NC(=O)c1cc2ccccc2oc1=O)C(=O)O (stereo not shown) [5i, 4-Methylsulfanyl-2-[(2-oxo-2H-chromene-3-carbonyl)-amino]-butanoic acid] | 108 to 109 °C | 
16 | COC(=O)C(CCSC)NC(=O)CCNC(=O)c1cc2ccccc2oc1=O (stereo not shown) [6c, Methyl 4-methylsulfanyl-2-{3-[(2-oxo-2H-chromene-3-carbonyl)-amino]-propionylamino}-butanoate] |  | IC50 (VEGFR2 (KDR)): 34.2 ± 1.06 µM; IC50 (Topoisomerase II): 8.6 ± 0.15 µM; IC50 (MCF-7 cells): 5.85 µM; cell death (MCF-7 cells): 97.35%; IC50 (HepG2 cells; 48 h): 33.8 µM; IC50 (HepG2 cells; Homo sapiens, HepG2, 48 h): 33.9 µM

Second part, led by results:

Row | melting point | Compound | other results
17 | 127 to 128 °C | COC(=O)CCNC(=O)CCNC(=O)c1cc2ccccc2oc1=O [6a, Methyl 3-{3-[(2-oxo-2H-chromene-3-carbonyl)-amino]-propionylamino} propanoate] | 
18 | 101 to 103 °C | COC(=O)C(NC(=O)CCNC(=O)c1cc2ccccc2oc1=O)C(C)C (stereo not shown) [6b, Methyl 3-Methyl-2-{3-[(2-oxo-2H-chromene-3-carbonyl)-amino]-propionyl-amino}-butanoate] | 
19 | 149 to 151 °C | COC(=O)CCNC(=O)C(NC(=O)c1cc2ccccc2oc1=O)C(C)C (stereo not shown) [7a, Methyl 3-{3-methyl-2-[(2-oxo-2H-chromene-3-carbonyl)-amino]-butyryl-amino}-propanoate] | 
20 | 97 to 99 °C | COC(=O)C(NC(=O)C(NC(=O)c1cc2ccccc2oc1=O)C(C)C)C(C)C (stereo not shown) [7b, Methyl 3-Methyl-2-{3-methyl-2-[(2-oxo-2H-chromene-3-carbonyl)-amino]-butyrylamino}-butanoate] | 
21 | 100 to 101 °C | COC(=O)[C@H](CCSC)NC(=O)[C@@H](NC(=O)c1cc2ccccc2oc1=O)C(C)C [7c, Methyl 2-{3-methyl-2-[(2-oxo-2H-chromene-3-carbonyl)-amino]-butyrylamino} -4-methylsulfanyl butanoate] | 
22 | 104 to 105 °C | COC(=O)CCNC(=O)C(CCSC)NC(=O)c1cc2ccccc2oc1=O (stereo not shown) [8a, Methyl 3-{4-methylsulfanyl-2-[(2-oxo-2H-chromene-3-carbonyl)-amino]-butyrylamino}-propanoate] | 
23 | 98 to 99 °C | COC(=O)C(NC(=O)C(CCSC)NC(=O)c1cc2ccccc2oc1=O)C(C)C (stereo not shown) [8b, Methyl 3-methyl-2-{4-methylsulfanyl-2-[(2-oxo-2H-chromene-3-carbonyl)-amino]-butyrylamino}-butanoate] | 
24 | 109 to 111 °C | COC(=O)C(CCSC)NC(=O)C(CCSC)NC(=O)c1cc2ccccc2oc1=O (stereo not shown) [8c, Methyl 4-methylsulfanyl-2-{4-methylsulfanyl-2-[(2-oxo-2H-chromene-3-carbonyl)-amino]-butyrylamino}-butanoate] | 
